Reference: US20230293801A1, “Flow Electroporator Device For Therapeutic Targeting Of Circulating Tumor Cells During Hemodialysis” (ROSEMAN UNIVERSITY OF HEALTH SCIENCES, priority 2022, published 2023)

What was measured:
Assay type in all cases: cell-based
HeLa cells [1] = assay: Cell viability by crystal violet staining after incubation with blood plasma and A922500; conditions: blood plasma and A922500, versus blood plasma alone for 24 hrs
Protocol: (§1) FIGS. 7A-H show A922500, a DGAT1 inhibitor, reduces the viability of CTCs in blood plasma. […] Cell viability is assayed with crystal violet staining and visualized at low resolution (left column) and high resolution (right column). […] Error bars are standard deviation of triplicate experiments. Asterisk indicates p-value≤0.01 versus culturing in EMEM medium. […] Control HeLa cells cultured in EMEM medium is presented in the top panel. HeLa cells incubated with blood plasma for 24 hrs is presented in the bottom panel. […] Images are control untreated HeLa cells cultured with EMEM medium (first panel); HeLa cells cultured in EMEM medium and treated with 10 μM A922500, a small-molecule inhibitor of diacylglycerol O-acyltransferase 1 (DGAT1), for 24 hrs (second panel); HeLa cells incubated with blood plasma for 24 hrs (third panel); and HeLa cells incubated with blood plasma and 10 μM A922500 for 24 hrs (fourth panel). FIGS. 7F-H show viability of HeLa cells following incubation with blood plasma or blood plasma and A922500. Cell viability is assayed with crystal violet staining and visualized at low resolution (FIG. 7F) and high resolution (FIG. 7G). […] Error bars are standard deviation of triplicate experiments. Single asterisk indicates p-value≤0.01 versus untreated control HeLa cells cultured with EMEM. […]

HeLa cells [2] = assay: Confocal fluorescence imaging of intracellular lipid droplets in cells incubated with blood plasma; conditions: blood plasma and 10 μM A922500 for 24 hrs
Protocol: as §1

HeLa cells [3] = assay: Doxorubicin uptake by flow cytometry of doxorubicin fluorescence, with and without the flow electroporator device; conditions: HeLa cells in EMEM, 40 nM doxorubicin, 500 ml/min, 300 V/cm, 200 V/cm, normalized to no electroporation
Protocol: (§2) FIGS. 6A-G show drug delivery via electroporation. […] Cell cycle analysis is performed using flow cytometry and propidium iodide staining of chromosomal DNA. […] Error bars are standard deviation of triplicate experiments. Asterisk indicates p-value≤0.01 versus untreated control. FIGS. 6D-G show increased delivery of doxorubicin into HeLa cells via electroporation. […] Data are normalized to 1 for doxorubicin fluorescence of HeLa cells incubated with 40 nM doxorubicin without electroporation. Error bars are standard deviation of triplicate experiments. Asterisk indicates p-value≤0.01 versus no electroporation.
(§3) Another utility of the flow electroporator device is drug delivery during hemodialysis. Due to the unique cancer hallmarks of CTCs, many chemotherapeutic agents can be used for their selective targeting. […] Electroporation by the flow electroporator device enhanced doxorubicin uptake by CTCs by more than 4 fold (FIG. 6D-G). An advantage of drug delivery during hemodialysis is the subsequent removal of excess chemotherapeutic agents, thereby minimizing unnecessary side effects to cancer patients.

HeLa cells [4] = assay: Cell cycle analysis by flow cytometry and propidium iodide staining of chromosomal DNA; conditions: HeLa cells as mocked CTCs, 40 nM doxorubicin for 24 hrs
Protocol: as §2, §3

## O=C(Nc1ccccc1)Nc1ccc(-c2ccc(C(=O)[C@@H]3CCC[C@H]3C(=O)O)cc2)cc1 [A922500]
HeLa cells [1]
  viability of CTCs in blood plasma: further reduced the viability
HeLa cells [2]
  lipid droplet accumulation in CTCs incubated with blood plasma: inhibited lipid droplet accumulation

## COc1cccc2c1C(=O)c1c(O)c3c(c(O)c1C2=O)C[C@@](O)(C(=O)CO)C[C@@H]3O[C@H]1C[C@H](N)[C@H](O)[C@H](C)O1 [doxorubicin]
HeLa cells [3]
  enhancement of doxorubicin uptake by CTCs by electroporation: more than 4 fold
HeLa cells [4]
  effect on cell cycle of CTCs: cell cycle arrest
